In ChEMBL document CHEMBL4033769, “Simple Tetrahydroisoquinolines Are Potent and Selective Kappa Opioid Receptor Antagonists” (ACS Med Chem Lett, 2017):
Activity calls are given as the source filed them. No cut-off for these calls is given here.

What was measured:
[1] = target: Delta-type opioid receptor (Homo sapiens) (UniProt P41143)
Description: Antagonist activity at human delta-opioid receptor expressed in CHO cell membranes assessed as inhibition of DPDPE agonist-induced [35S]GTPgammaS binding after 60 mins by scintillation counting method

[2] = target: Mu-type opioid receptor (Homo sapiens) (UniProt P35372); experiment: Agonist activity at human mu-opioid receptor expressed in CHO cell membranes assessed as induction of [35S]GTPgammaS binding at 10 uM after 60 mins by scintillation counting method; format: functional
Chain of Mu-type opioid receptor (Homo sapiens) (P35372 whole entry): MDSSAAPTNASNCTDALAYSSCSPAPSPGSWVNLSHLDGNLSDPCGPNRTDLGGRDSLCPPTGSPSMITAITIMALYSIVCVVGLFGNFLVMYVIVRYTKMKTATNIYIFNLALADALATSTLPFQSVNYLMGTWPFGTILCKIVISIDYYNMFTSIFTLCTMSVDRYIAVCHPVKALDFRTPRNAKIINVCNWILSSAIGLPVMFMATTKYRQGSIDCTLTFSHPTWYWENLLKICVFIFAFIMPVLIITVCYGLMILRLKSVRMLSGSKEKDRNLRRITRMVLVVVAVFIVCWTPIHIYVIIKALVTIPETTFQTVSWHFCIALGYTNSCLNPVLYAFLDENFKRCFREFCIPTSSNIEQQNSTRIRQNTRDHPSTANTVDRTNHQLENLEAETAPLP

[3] = target: Delta-type opioid receptor (Homo sapiens) (UniProt P41143); experiment: Agonist activity at human delta-opioid receptor expressed in CHO cell membranes assessed as induction of [35S]GTPgammaS binding at 10 uM after 60 mins by scintillation counting method; format: functional
[4] = target: Kappa-type opioid receptor (Homo sapiens) (UniProt P41145); experiment: Agonist activity at human kappa-opioid receptor expressed in CHO cell membranes assessed as induction of [35S]GTPgammaS binding at 10 uM after 60 mins by scintillation counting method; format: functional
Chain of Kappa-type opioid receptor (Homo sapiens) (P41145 whole entry): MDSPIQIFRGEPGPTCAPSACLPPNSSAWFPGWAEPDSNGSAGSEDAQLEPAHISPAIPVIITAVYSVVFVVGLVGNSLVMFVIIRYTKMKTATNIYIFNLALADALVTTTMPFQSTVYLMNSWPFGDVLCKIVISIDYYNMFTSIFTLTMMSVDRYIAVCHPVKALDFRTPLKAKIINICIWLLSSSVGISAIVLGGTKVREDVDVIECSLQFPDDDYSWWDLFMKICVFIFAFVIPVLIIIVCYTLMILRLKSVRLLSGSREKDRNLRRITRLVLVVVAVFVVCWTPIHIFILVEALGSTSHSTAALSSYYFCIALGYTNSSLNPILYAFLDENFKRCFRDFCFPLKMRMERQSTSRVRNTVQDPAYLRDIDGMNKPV

Chain of Delta-type opioid receptor (Homo sapiens) (P41143 whole entry): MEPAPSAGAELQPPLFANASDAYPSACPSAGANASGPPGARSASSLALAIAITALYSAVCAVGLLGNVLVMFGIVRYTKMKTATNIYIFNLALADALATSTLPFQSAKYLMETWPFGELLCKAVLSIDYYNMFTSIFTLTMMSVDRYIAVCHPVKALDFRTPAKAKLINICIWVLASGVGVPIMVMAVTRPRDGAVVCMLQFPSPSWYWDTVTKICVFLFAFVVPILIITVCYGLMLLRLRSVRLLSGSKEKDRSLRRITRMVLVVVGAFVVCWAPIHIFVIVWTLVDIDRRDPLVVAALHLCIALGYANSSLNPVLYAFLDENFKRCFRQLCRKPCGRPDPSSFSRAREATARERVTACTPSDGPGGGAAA

## CC(C)[C@@H](CC1CCCCC1)NC(=O)[C@H]1Cc2ccc(O)cc2CN1
[1]
  Ke: 640 nM
[2]
  Activity: inactive
[3]
  Activity: inactive
[4]
  Activity: inactive

## CC(C)[C@@H](CN1CCCCC1)NC(=O)[C@H]1Cc2ccc(O)cc2CN1
[2]
  Activity: inactive
[3]
  Activity: inactive
[4]
  Activity: inactive
